Measurements as given in patent publication US5298502A, “Method and composition for photodynamic treatment and detection of tumors” (priority 1991, dated 1994).

What was measured:
[1] = tested on: cotyledons harvested from etiolated cucumber seedlings; assay: Percent Efflux test (Efflux Experiment); format: tissue-based, Cucumis sativus L.; details: 100 nM concentration
Procedure: The enzyme-inhibiting agent is preferably one which has a high capacity for disrupting the plasmalemma of plant material. One test for that capacity is the Efflux Experiment described in the article by Halling and Peters in Plant Physiology, 84, 1114-5 (1987).
The Percent Efflux test employs cotyledons harvested from etiolated cucumber seedlings. In an initial step a mass of cotyledons is treated in the dark with an aqueous buffered solution containing a radiolabelled sugar. The amount of the sugar taken up by the cotyledons is then measured (by counting, as described below). […] The cotyledons, in contact with the aqueous solutions, are then exposed to light for 16 hours, and then separated from the aqueous solutions; the latter are then measured (by counting) to determine their contents of radiolabelled material. The results are expressed as Percent Efflux Which is calculated as follows, where S is the count of radiolabelled material (per cotyledon) taken up by the cotyledons in their initial treatment, ST is the count of radiolabelled material (per cotyledon) in the aqueous solution containing the compound to be tested, after the exposure to light and Sc is the count of radiolabelled material (per cotyledon) in the aqueous solution of the control, after exposure to light: [formula] […]

[2] = tested on: cabbage loopers; assay: Insecticidal test against cabbage loopers; details: in vivo
[3] = tested on: mosquito larvae; assay: Insecticidal test against mosquito larvae; details: in vivo

| SMILES | total efflux [1] | activity against cabbage loopers [2] | activity against mosquito larvae [3] |
| --- | --- | --- | --- |
| C#CCOc1cc(-n2nc(C)n(C(F)F)c2=O)c(F)cc1Cl [1-(4-chloro-2-fluoro-5-propargyloxyphenyl) -3-methyl-4-difluoromethyl-Δ^2-1,2,4-triazolin-5-one] | over 90% |  |  |
| C#CCOc1cc(-n2nc(C)n(C(F)F)c2=O)c(F)cc1Cl [Agent 7f] |  | active | active |
| CCOC(=O)C(C)OC(=O)c1cc(Oc2ccc(C(F)(F)F)cc2Cl)ccc1[N+](=O)[O-] (stereo not shown) [lactophen, 1-(carboethoxy)ethyl 5-(2-chloro-4-trifluoromethylphenoxy) -2-nitrobenzoate, reference compound] | over 90% |  |  |
